According to publication PMC3565318, “Catalytic Mechanism of Short Ethoxy Chain Nonylphenol Dehydrogenase Belonging to a Polyethylene Glycol Dehydrogenase Group in the GMC Oxidoreductase Family” (International Journal of Molecular Sciences, 2013):

Target: T1, NPEO-DH (short ethoxy chain nonylphenol dehydrogenase) (Ensifer sp. AS08, UniProt Q2HXX0)
T1 construct: gene pegdh; complete ORF (1659 bp, 553 residues) in pCold I, His-tag, expressed in E. coli BL21(DE3) pLysS, Ni-NTA purified; FAD flavoprotein
T1 sequence (Q2HXX0 entry or part of it): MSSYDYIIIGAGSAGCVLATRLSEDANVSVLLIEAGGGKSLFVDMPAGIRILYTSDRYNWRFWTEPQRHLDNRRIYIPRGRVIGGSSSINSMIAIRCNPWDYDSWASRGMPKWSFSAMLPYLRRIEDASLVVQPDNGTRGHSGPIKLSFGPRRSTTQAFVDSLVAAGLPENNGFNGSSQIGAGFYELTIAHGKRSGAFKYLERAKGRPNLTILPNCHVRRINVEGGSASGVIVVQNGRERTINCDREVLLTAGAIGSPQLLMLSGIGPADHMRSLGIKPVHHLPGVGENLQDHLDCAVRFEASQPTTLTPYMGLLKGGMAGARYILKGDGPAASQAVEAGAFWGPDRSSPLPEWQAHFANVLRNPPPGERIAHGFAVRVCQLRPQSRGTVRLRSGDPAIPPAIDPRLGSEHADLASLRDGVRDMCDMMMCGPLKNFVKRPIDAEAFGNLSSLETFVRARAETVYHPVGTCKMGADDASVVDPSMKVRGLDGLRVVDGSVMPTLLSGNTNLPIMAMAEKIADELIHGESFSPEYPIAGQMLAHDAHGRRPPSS
Test: stopped-flow, absorbance at […] nm
Format: biochemical
Settings: electron acceptor; PEG 1000-reduced enzyme, 0.01 mM DCIP, 0.1 M Tris-HCl pH 8.0, 30 °C

For `O=C1C(Cl)=CC(=Nc2ccc(O)cc2)C=C1Cl` [2,6-dichloroindophenol], the “stopped-flow, absorbance at 600 nm” value was “performed with the reduced form of enzyme (reduced flavin) and a minimal concentration of DCIP”.
